Experimental data as given in PMC7651859, “Identification of 6-amino-1H-pyrazolo[3,4-d]pyrimidines with in vivo efficacy against visceral leishmaniasis” (RSC Medicinal Chemistry, 2020).
In brackets after ≈: the same amount, converted by molar mass.

What was measured:
[1] = test system: THP-1 cells; assay: THP-1 host cell toxicity readout of the Ld InMac assay; type: cell-based; conditions: Homo sapiens; host THP-1 cells; mean of n ≥ 3; read-out: THP-1 pEC50 (converted)
From the text: (§1) For the identification of DDD853651/GSK3186899, which contained a trans-1,4-cyclohexyldiamine, a key strategy was to optimise the balance between potency in the intracellular Leishmania assay (L. donovani in THP-1 cells, referred to as Ld InMac assay[9]) and solubility.[10] In that case, we focused on 2 (Table 1), where the sulfonamide was required for potency but was poorly soluble. […] To this end, we examined a 4-aminopiperidine central unit with both sulfonamide and amide substituents (Table 1). […] We therefore selected 4 as a suitable start-point for further chemistry. […] We noted that either lengthening the linker to the aromatic ring, or removing it, led to a loss of activity (6 and 7 respectively).
(§2) Intramacrophage Leishmania donovani Assay

[2] = test system: L. donovani amastigotes; assay: Ld InMac intramacrophage Leishmania donovani assay; type: cell-based; conditions: for EC50: Leishmania donovani, L. donovani amastigotes in THP-1 cells, mean of n ≥ 3, read-out: Ld InMac pEC50 (converted); for loss of potency (less active) versus comparator compound: versus matched comparator
From the text: as §1, §2

[3] = CAD kinetic aqueous solubility; type: physicochemical; conditions: pH 7.4, pH7.4 phosphate buffered saline
Method: CAD Aqueous Solubility 11
5µl of 10mM DMSO stock solution is diluted to 100 µ l with pH7.4 phosphate buffered saline,
equilibrated for 1 hour at room temperature and filtered through Millipore MultiscreenHTS-PCF

[4] = Stability in mouse liver microsomes (intrinsic clearance); type: in vitro ADME; conditions: mouse liver microsomal intrinsic clearance, 0.5 μM
Method: Stability in Microsomes 10
Test compound (0.5 μM) was incubated with female CD1 mouse (Xenotech) liver microsomes and their action started with addition of excess NADPH (8 mg/mL 50 mM potassium phosphate buffer, pH 7.4). Immediately, at time zero, then at 3, 6, 9, 15, and 30 min, an aliquot (50 μL) of the incubation mixture was removed and mixed with acetonitrile (100 μL) to stop the reaction.
Internal standard was added to all samples, the samples centrifuged to sediment precipitated protein, and the plates then sealed prior to UPLC-MS/MS analysis using a Xevo TQs micro (Waters Corporation, USA). XLfit (IDBS, UK) was used to calculate the exponential decay and consequently the rate constant (k) from the ratio of the peak area of test compound to internal standard at each time point. The rate of intrinsic clearance (Cl i) of each test compound was then calculated using the equation Cl i (mL/min/g liver) = k × V × microsomal protein yield, where V (mL/mg protein) is the incubation volume/mg protein added and […]
microsomal protein yield is taken as 52.5 mg protein/g liver. Verapamil (0.5 μM) was used as a positive control to confirm acceptable assay performance. […]

Row | Compound | EC50 [1] [µM] | EC50 [2] [µM] | solubility at 1 h [3] [µM] | more active than comparator compound ([2]; Ld InMac, 4 versus 3) [fold] | Cli mouse [4] [ml min^–1 g^–1] | loss of potency (less active) versus comparator compound ([2]; Ld InMac) [fold]
1 | CC(C)Cc1n[nH]c2nc(N[C@H]3CC[C@H](NC(=O)Cc4ccccc4)CC3)ncc12 [Compound 3] | > 50.1 | > 50.1 | 51 (≈ 20.7 µg/mL) | – | – | –
2 | CC(C)Cc1n[nH]c2nc(NC3CCN(C(=O)Cc4ccccc4)CC3)ncc12 [Compound 4] | > 50.1 | 7.94 | 59 (≈ 23.2 µg/mL) | > 10 | 18 | –
3 | CC(C)Cc1n[nH]c2nc(NC3CCN(S(=O)(=O)Cc4ccccc4)CC3)ncc12 [Compound 5] | > 50.1 | 12.6 | 10 (≈ 4.29 µg/mL) | – | >50 | > 10
4 | CC(C)Cc1n[nH]c2nc(NC3CCN(C(=O)CCc4ccccc4)CC3)ncc12 [Compound 6] | > 50.1 | 20 | – | – | – | –
5 | CC(C)Cc1n[nH]c2nc(NC3CCN(C(=O)c4ccccc4)CC3)ncc12 [Compound 7] | > 50.1 | > 50.1 | 291 (≈ 110 µg/mL) | – | 7 | –
6 | CC(C)Cc1n[nH]c2nc(NC3CCN(C(=O)Cc4ccc(F)cc4F)CC3)ncc12 [Compound 8] | > 50.1 | 1.58 | 26 (≈ 11.1 µg/mL) | – | 12 | –
7 | CC(C)Cc1n[nH]c2nc(NC3CCN(C(=O)Cc4ccc(Cl)cc4Cl)CC3)ncc12 [Compound 9] | > 50.1 | 10 | 26 (≈ 12 µg/mL) | – | 30 | –
8 | CC(C)Cc1n[nH]c2nc(NC3CCN(C(=O)C(C)c4ccccc4)CC3)ncc12 (centres unmarked) [Compound 10] | > 50.1 | 5.01 | 140 (≈ 56.9 µg/mL) | – | – | –
9 | CC(C)(C)Cc1n[nH]c2nc(NC3CCN(C(=O)Cc4ccc(F)cc4F)CC3)ncc12 [Compound 11] | > 50.1 | > 50.1 | 27 (≈ 11.9 µg/mL) | – | 22.0 | –
10 | O=C(Cc1ccc(F)cc1F)N1CCC(Nc2ncc3c(C4CC4)n[nH]c3n2)CC1 [Compound 12] | > 50.1 | 1.26 | 39 (≈ 16.1 µg/mL) | – | 5.0 | –
11 | O=C(Cc1ccc(F)cc1F)N1CCC(Nc2ncc3c(C4CCOCC4)n[nH]c3n2)CC1 [Compound 13] | > 50.1 | 1 | 78 (≈ 35.6 µg/mL) | – | 0.5 | –
12 | O=C(Cc1ccc(F)cc1F)N1CCC(Nc2ncc3c(CN4CCOCC4)n[nH]c3n2)CC1 [Compound 14] | > 50.1 | 25.1 | – | – | <0.5 | –
13 | O=C(Cc1ccc(F)cc1F)N1CCC(Nc2ncc3c(N4CCOCC4)n[nH]c3n2)CC1 [Compound 15] | > 50.1 | 0.794 | 14 (≈ 6.4 µg/mL) | – | 2 | –
14 | CC(C)Oc1n[nH]c2nc(NC3CCN(C(=O)Cc4ccc(F)cc4F)CC3)ncc12 [Compound 16] | > 50.1 | 6.31 | 33 (≈ 14.2 µg/mL) | – | – | –
15 | O=C(Cc1ccc(F)cc1F)N1CCC(Nc2ncc3c(-c4ccccc4)n[nH]c3n2)CC1 [Compound 17] | > 50.1 | 0.316 | < 1 | – | 7.2 | –
16 | O=C(Cc1ccc(F)cc1F)N1CCC(Nc2ncc3c(-c4ccccn4)n[nH]c3n2)CC1 [Compound 18] | > 50.1 | 0.794 | 23 (≈ 10.3 µg/mL) | – | 6.7 | –
17 | Cn1nccc1-c1n[nH]c2nc(NC3CCN(C(=O)Cc4ccc(F)cc4F)CC3)ncc12 [Compound 19] | 20 | 3.16 | 30 (≈ 13.6 µg/mL) | – | 3.3 | 10
18 | CC(C)Cc1n[nH]c2nc(N(C)C3CCN(C(=O)Cc4ccc(F)cc4F)CC3)ncc12 [Compound 22] | > 50.1 | > 50.1 | – | – | – | > 10
19 | COc1ccccc1-c1n[nH]c2nc(OC3CCN(C(=O)Cc4ccc(F)cc4F)CC3)ncc12 [Compound 23] | > 50.1 | 20 | – | – | – | > 10

Row | Compound | EC50 [1] [µM] | EC50 [2] [µM] | solubility at 1 h [3] [µM] | more active than comparator compound ([2]; Ld InMac, 4 versus 3) [fold] | Cli mouse [4] [ml min^–1 g^–1] | loss of potency (less active) versus comparator compound ([2]; Ld InMac) [fold]
20 | CC(C)Cc1nn(C)c2nc(NC3CCN(C(=O)Cc4ccc(F)cc4F)CC3)ncc12 [Compound 24] | > 50.1 | > 50.1 | – | – | – | > 10
21 | CC(C)Cc1noc2nc(NC3CCN(C(=O)Cc4ccc(F)cc4F)CC3)ncc12 [Compound 25] | > 50.1 | > 50.1 | – | – | – | > 10
22 | COc1ccccc1-c1c[nH]c2nc(NC3CCN(C(=O)Cc4ccc(F)cc4F)CC3)ncc12 [Compound 26] | > 50.1 | > 50.1 | – | – | – | > 10
23 | COc1ccccc1C(=O)c1cnc(NC2CCN(C(=O)Cc3ccc(F)cc3F)CC2)nc1N [Compound 27] | 10 | 6.31 | – | – | – | –
24 | COc1ccccc1C(=O)c1cnc(NC2CCN(C(=O)Cc3ccc(F)cc3F)CC2)nc1 [Compound 28] | > 50.1 | 6.31 | – | – | – | –
25 | O=C(Cc1ccc(F)cc1F)N1CCC[C@H](Nc2ncc3c(-c4ccccn4)n[nH]c3n2)C1 [Compound 29] | > 50.1 | 12.6 | – | – | – | –
26 | O=C(Cc1ccc(F)cc1F)N1CCC[C@@H](Nc2ncc3c(-c4ccccn4)n[nH]c3n2)C1 [Compound 30] | > 50.1 | > 50.1 | – | – | – | –
27 | COc1ccccc1-c1n[nH]c2nc(N[C@H]3CCC[C@@H](NC(=O)Cc4ccc(F)cc4F)C3)ncc12 [Compound 31] | 25.1 | 31.6 | – | – | – | –
28 | COc1ccccc1-c1n[nH]c2nc(N[C@H]3CCC[C@H](NC(=O)Cc4ccc(F)cc4F)C3)ncc12 [Compound 32] | 31.6 | 15.8 | – | – | – | –
29 | COc1ccccc1-c1n[nH]c2nc(NC3(C)CCN(C(=O)Cc4ccc(F)cc4F)CC3)ncc12 [Compound 33] | 39.8 | 3.98 | – | – | – | –
30 | O=C(Cc1ccc(F)cc1F)N1CCC(CNc2ncc3c(-c4ccccn4)n[nH]c3n2)CC1 [Compound 34] | > 50.1 | > 50.1 | – | – | – | –
31 | COc1ccccc1-c1n[nH]c2nc(NCC3CN(C(=O)Cc4ccc(F)cc4F)C3)ncc12 [Compound 35] | > 50.1 | > 50.1 | – | – | – | –
32 | CC(C)(CNC(=O)Cc1ccc(F)cc1F)Nc1ncc2c(-c3ccccn3)n[nH]c2n1 [Compound 36] | > 50.1 | > 50.1 | – | – | – | –
33 | COc1ccccc1-c1n[nH]c2nc(NC3CCN(C(=O)OCc4ccccc4)CC3)ncc12 [Compound 39] | > 50.1 | 0.398 | – | – | 9 | –
34 | O=C(CC1CC1)N1CCC(Nc2ncc3c(-c4ccccn4)n[nH]c3n2)CC1 [Compound 45] | > 50.1 | 5.01 | ≥ 392 | – | – | –
35 | O=C(CC1CC1)N1CCC(Nc2ncc3c(N4CCOCC4)n[nH]c3n2)CC1 [Compound 46] | > 50.1 | 15.8 | – | – | – | –
36 | C[C@@H]1[C@H](O)[C@@H](C)/C=C/C=C/C=C/C=C/C=C/C=C/C=C/[C@H](O[C@@H]2O[C@H](C)[C@@H](O)[C@H](N)[C@@H]2O)C[C@@H]2O[C@](O)(C[C@@H](O)C[C@@H](O)[C@H](O)CC[C@@H](O)C[C@@H](O)CC(=O)O[C@H]1C)C[C@H](O)[C@H]2C(=O)O [amphotericin B, reference compound] | – | 0.2 | – | – | – | –
37 | CCCCCCCCCCCCCCCCOP(=O)([O-])OCC[N+](C)(C)C [miltefosine, reference compound] | – | 0.794 | – | – | – | –
